Where two headings read alike, the source gives them in different places.
Tests used:
[1] = for CT Scan - Small Airways Disease, Change from Baseline / CT Scan - Small Airways Disease, Result / CT Scan Parametric Imaging - Emphysema, Change from Baseline / CT Scan Parametric Imaging - Emphysema, Result / CT Scan - Air Trapping Index -856 HU, Change from Baseline / CT Scan - Air Trapping Index -856 HU, Result: Week 16; for CT Scan - Air Trapping Index -856 HU, Change from Baseline: first Change column under heads Inspiratory | Expiratory; for CT Scan - Air Trapping Index -856 HU, Result: first Result column under heads Inspiratory | Expiratory
Text: All eligible participants received inspiratory and expiratory CT scans at Baseline and at Week 16 to assess for changes in mucus plugs and airway architecture (e.g., changes in airway wall thickness).

[2] = for SGRQ-C Questionnaire - Total Score, CFB (Change from baseline), Max / SGRQ-C Questionnaire - Total Score, CFB (Change from baseline), Mean ± SD / SGRQ-C Questionnaire - Total Score, CFB (Change from baseline), Median / SGRQ-C Questionnaire - Total Score, CFB (Change from baseline), Min / SGRQ-C Questionnaire - Total Score, CFB (Change from baseline), Q1 / SGRQ-C Questionnaire - Total Score, CFB (Change from baseline), Q3 / SGRQ-C Questionnaire - Total Score, Observed, Max / SGRQ-C Questionnaire - Total Score, Observed, Mean ± SD / SGRQ-C Questionnaire - Total Score, Observed, Median / SGRQ-C Questionnaire - Total Score, Observed, Min / SGRQ-C Questionnaire - Total Score, Observed, Q1 / SGRQ-C Questionnaire - Total Score, Observed, Q3: Week 16, 150 mg BID
Text: The SGRQ-C questionnaire was developed from the SGRQ which was designed to measure health impairment in patients with asthma and COPD. The SGRQ-C is a shorter version (40 items compared with 50 items in SGRQ) derived from the original version following detailed analysis of data from large studies in COPD. The FDA has stated that the SGRQ-C is acceptable for use as either a co-primary endpoint or as a secondary endpoint providing supporting evidence of efficacy in a clinical trial. In this study, assessment of SGRQ-C was a secondary endpoint.
The SGRQ-C total score is made up of three components: (1) symptoms frequency and severity of symptoms; (2) activity effect of disease on common daily physical activities; and (3) impacts psychosocial effects of the disease.
The threshold for a clinically significant difference between groups of participants and for changes within groups of participants was four units.

[3] = <50% AEC reduction at Week 16 (N = 4)
[4] = >=50% AEC reduction at Week 16 (N = 3)

SMILES: CCCN[C@@H]1CCc2nc(N)sc2C1 [Dexpramipexole, (6R)-2-amino-4,5,6,7-tetrahydro-6-(propylamino)benzothiazole]
- CT Scan - Small Airways Disease, Change from Baseline ([1]; Subject ID 10001-001-0001): −7.12
- CT Scan - Small Airways Disease, Result ([1]; Subject ID 10001-001-0001): 25.72
- CT Scan Parametric Imaging - Emphysema, Change from Baseline ([1]; Subject ID 10001-001-0001): 2.41
- CT Scan Parametric Imaging - Emphysema, Result ([1]; Subject ID 10001-001-0001): 36.28
- CT Scan - Air Trapping Index -856 HU, Change from Baseline ([1]; Subject ID 10001-001-0001): −0.29%
- CT Scan - Air Trapping Index -856 HU, Result ([1]; Subject ID 10001-001-0001): 49.57%
- CT Scan - Small Airways Disease, Change from Baseline ([1]; Subject ID 10001-008-0002): 2.18
- CT Scan - Small Airways Disease, Result ([1]; Subject ID 10001-008-0002): 51.14
- CT Scan Parametric Imaging - Emphysema, Change from Baseline ([1]; Subject ID 10001-008-0002): −0.73
- CT Scan Parametric Imaging - Emphysema, Result ([1]; Subject ID 10001-008-0002): 35.88
- CT Scan - Air Trapping Index -856 HU, Change from Baseline ([1]; Subject ID 10001-008-0002): 0.57%
- CT Scan - Air Trapping Index -856 HU, Result ([1]; Subject ID 10001-008-0002): 68.06%
- CT Scan - Small Airways Disease, Change from Baseline ([1]; Subject ID 10001-010-0005): −3.80
- CT Scan - Small Airways Disease, Result ([1]; Subject ID 10001-010-0005): 39.08
- CT Scan Parametric Imaging - Emphysema, Change from Baseline ([1]; Subject ID 10001-010-0005): 0.16
- CT Scan Parametric Imaging - Emphysema, Result ([1]; Subject ID 10001-010-0005): 12.11
- CT Scan - Air Trapping Index -856 HU, Change from Baseline ([1]; Subject ID 10001-010-0005): −2.18%
- CT Scan - Air Trapping Index -856 HU, Result ([1]; Subject ID 10001-010-0005): 29.57%
- CT Scan - Small Airways Disease, Change from Baseline ([1]; Subject ID 10001-022-0001): −4.12
- CT Scan - Small Airways Disease, Result ([1]; Subject ID 10001-022-0001): 46.36
- CT Scan Parametric Imaging - Emphysema, Change from Baseline ([1]; Subject ID 10001-022-0001): −4.75
- CT Scan Parametric Imaging - Emphysema, Result ([1]; Subject ID 10001-022-0001): 8.59
- CT Scan - Air Trapping Index -856 HU, Change from Baseline ([1]; Subject ID 10001-022-0001): −11.40%
- CT Scan - Air Trapping Index -856 HU, Result ([1]; Subject ID 10001-022-0001): 27.88%
- CT scoring for small airway disease ([1]; all patients): All patients showed an improvement in scoring
- CT scoring for Air Trapping, change ([1]; one patient): −11.40
- CT scoring for emphysema, decrease ([1]; one patient): 4.75 points
- CT scoring for small airway disease, improvement ([1]; one patient): 7.12 points
- SGRQ-C total score, decrease compared to baseline ([2]; AECR≥0.5 patients, 16 weeks): 12.08 points
- SGRQ-C Questionnaire - Total Score, CFB (Change from baseline), Max [2, 3]: 3.9
- SGRQ-C Questionnaire - Total Score, CFB (Change from baseline), Mean ± SD [2, 3]: −4.15 ± 6.817
- SGRQ-C Questionnaire - Total Score, CFB (Change from baseline), Median [2, 3]: −5.18
- SGRQ-C Questionnaire - Total Score, CFB (Change from baseline), Min [2, 3]: −10.1
- SGRQ-C Questionnaire - Total Score, CFB (Change from baseline), Q1 [2, 3]: −9.8
- SGRQ-C Questionnaire - Total Score, CFB (Change from baseline), Q3 [2, 3]: 1.5
- SGRQ-C Questionnaire - Total Score, Observed, Max [2, 3]: 63.2
- SGRQ-C Questionnaire - Total Score, Observed, Mean ± SD [2, 3]: 45.45 ± 19.893
- SGRQ-C Questionnaire - Total Score, Observed, Median [2, 3]: 50.64
- SGRQ-C Questionnaire - Total Score, Observed, Min [2, 3]: 17.3
- SGRQ-C Questionnaire - Total Score, Observed, Q1 [2, 3]: 32.1
- SGRQ-C Questionnaire - Total Score, Observed, Q3 [2, 3]: 58.8
- SGRQ-C Questionnaire - Total Score, CFB (Change from baseline), Max [2, 4]: −6.2
- SGRQ-C Questionnaire - Total Score, CFB (Change from baseline), Mean ± SD [2, 4]: −12.08 ± 5.544
- SGRQ-C Questionnaire - Total Score, CFB (Change from baseline), Median [2, 4]: −12.76
- SGRQ-C Questionnaire - Total Score, CFB (Change from baseline), Min [2, 4]: −17.2
- SGRQ-C Questionnaire - Total Score, CFB (Change from baseline), Q1 [2, 4]: −17.2
- SGRQ-C Questionnaire - Total Score, CFB (Change from baseline), Q3 [2, 4]: −6.2
- SGRQ-C Questionnaire - Total Score, Observed, Max [2, 4]: 45.0
- SGRQ-C Questionnaire - Total Score, Observed, Mean ± SD [2, 4]: 40.39 ± 7.250
- SGRQ-C Questionnaire - Total Score, Observed, Median [2, 4]: 44.09
- SGRQ-C Questionnaire - Total Score, Observed, Min [2, 4]: 32.0
- SGRQ-C Questionnaire - Total Score, Observed, Q1 [2, 4]: 32.0
- SGRQ-C Questionnaire - Total Score, Observed, Q3 [2, 4]: 45.0
